According to PMC4321561, “Optimization of the cyclotide framework to improve cell penetration properties” (Frontiers in Pharmacology, 2015):
Where a SMILES comes first, the peptide text is derived from it. Bridges are numbered along the chain shown (N, C = ends). Where no end group is shown, it is not given here.

Assays:
Serum stability = assay type: in vitro ADME; details: 300 μM stock diluted 10 times in 100% human serum (male AB plasma), 37°C, analytical HPLC, 215 nm, triplicate; for stability in human serum (in words): 0-24 h
Procedure: The stability of peptides in human serum was examined using a protocol reported previously (Chan et al., [2011]). Briefly, stock solutions of peptides (300 μM) were diluted 10 times with pre-warmed 100% human serum isolated from male AB plasma (Sigma-Aldrich) and incubated at 37°C for 0, 1, 2, 3, 5, 8, 12 and 24 h. Controls with peptides in PBS were included. The reaction was stopped by denaturing the serum proteins with urea at a final concentration of 3 M at 4°C for 10 min, followed by precipitation of serum proteins with trichloroacetic acid at a final concentration of 7% (v/v) (4°C, 10 min) and centrifugation (17,000 g, 10 min). The supernatant of each sample was recovered and run on an analytical column using a linear gradient of 5–30% solvent B (acetonitrile 90% (v/v) with 0.045% (v/v) TFA in H2O) in solvent A (0.05% (v/v) TFA in H2O) over 25 min at a flow rate of 0.3 mL/min with monitoring at 215 nm. The elution profile of each peptide was identified by the PBS sample from 0 time point. The percentage of peptide remaining in serum-treated samples was determined by comparing the height of the peptide peak obtained at each time point with that of the peptide peak obtained at 0 time point. Each experiment was done in triplicate.
Figure 4 Serum-stability of tested peptides. Percentage of peptide remaining upon incubation with human serum. The portion of serum-treated peptide remaining was determined by calculating the height of the respective elution peak in analytical-HPLC and comparing it with control without incubation. Data points are means ± SD of three experiments.

HeLa cells = test: Internalization of Alexa fluor 488-labeled peptides into HeLa cells (flow cytometry); assay type: cell-based, human; details: 8 μM Alexa fluor 488-labeled peptide, 1 h, 37°C, medium without serum, flow cytometry, 10,000 cells, mean ± SD of three independent experiments

## CC[C@H](C)[C@@H]1NC(=O)[C@@H]2CSSC[C@@H]3NC(=O)[C@H](C(C)C)NC(=O)CNC(=O)CNC(=O)[C@H](CC(=O)O)NC(=O)[C@H](CO)NC(=O)CNC(=O)[C@H](CO)NC(=O)CNC(=O)[C@@H]4CSSC[C@H](NC(=O)[C@H](CC(=O)O)NC(=O)[C@H](CO)NC(=O)[C@H](CC(=O)O)NC(=O)[C@H](CCCNC(=N)N)NC(=O)[C@H](CCCNC(=N)N)NC(=O)[C@H](CSSC[C@H](NC1=O)C(=O)N[C@@H](CCCCN)C(=O)NCC(=O)N[C@@H](CC(N)=O)C(=O)NCC(=O)N[C@@H](Cc1ccc(O)cc1)C(=O)N4)NC(=O)[C@H](CCCNC(=N)N)NC(=O)[C@H](CCCNC(=N)N)NC(=O)[C@H](CCCNC(=N)N)NC(=O)[C@H](C)NC(=O)[C@H](CCCNC(=N)N)NC(=O)[C@H](CCCNC(=N)N)NC(=O)CNC(=O)[C@H](Cc1ccc(O)cc1)NC3=O)C(=O)N1CCC[C@H]1C(=O)NCC(=O)N[C@@H](C)C(=O)N2 [MCo-CTP] (cyclo(ACICKGNGYCGSGSDGGVCYGRRARRRCRRDSDCPG); disulfide 2-19, 4-28, 10-34)
Serum stability
  stability in human serum (in words): stable in human serum
Serum stability; 12 h, peak height vs 0 time point, read-out: peptide remaining intact after 12 h incubation in serum
  remaining at 12 h, 30 µM: > 60%

## YGRKARRRRRR [CTP512]
Serum stability; peak height vs 0 time point
  time to full degradation by proteases in serum: ≤ 1 h

## NH2-YGRKKRRQRRRPPQG-COOH [TAT, gold standard linear cell-penetrating peptide]
HeLa cells; ex 488 nm / em 530/30 nm
  Fluorescence signal of HeLa cells, before trypan blue (mean fluorescence emission normalized to TAT after trypan blue): 1.08 ± 0.07
HeLa cells; trypan blue 160 μg/mL
  Fluorescence signal of HeLa cells, after trypan blue (mean fluorescence emission normalized to TAT after trypan blue): 1.00 ± 0.17

## CC[C@H](C)[C@@H]1NC(=O)[C@@H]2CSSC[C@@H]3NC(=O)[C@H](C(C)C)NC(=O)CNC(=O)CNC(=O)[C@H](CC(=O)O)NC(=O)[C@H](CO)NC(=O)CNC(=O)[C@H](CO)NC(=O)CNC(=O)[C@@H]4CSSC[C@H](NC(=O)[C@H](CC(=O)O)NC(=O)[C@H](CO)NC(=O)[C@H](CC(=O)O)NC(=O)[C@H](CCCNC(=N)N)NC(=O)[C@H](CCCNC(=N)N)NC(=O)[C@H](CSSC[C@H](NC1=O)C(=O)N[C@@H](CCCCN)C(=O)NCC(=O)N[C@@H](CC(N)=O)C(=O)NCC(=O)N[C@@H](Cc1ccc(O)cc1)C(=O)N4)NC(=O)[C@H](CCCNC(=N)N)NC(=O)[C@H](CCCNC(=N)N)NC(=O)[C@H](CC(C)C)NC(=O)[C@H]([C@@H](C)CC)NC(=O)[C@H](CCCNC(=N)N)NC(=O)[C@@H]1CCCN1C3=O)C(=O)N1CCC[C@H]1C(=O)NCC(=O)N[C@@H](C)C(=O)N2 [MCo-RM1] (cyclo(ACICKGNGYCGSGSDGGVCPRILRRCRRDSDCPG); disulfide 2-19, 4-26, 10-32)
Serum stability
  stability in human serum (in words): stable in human serum
